In DBAASP:
≈ marks a conversion by molar mass, not a printed value. Values belong to the compound of their own block, whether it stands above or below them.

Tests used:
Assay in all cases: ≥ marks a high value that may be exact or a test limit, other limits are often not marked, values filed in µg/mL are converted to µM
[1] = test system: Micrococcus luteus ATCC 9341
Shigella dysenteriae = test system: Shigella dysenteriae
[2] = test system: Candida albicans ATCC 2002
[3] = test system: Staphylococcus aureus ATCC 2592
[4] = test system: Staphylococcus aureus NCTC 8325
[5] = test system: Candida albicans ATCC 90028
Pasteurella multocida = test system: Pasteurella multocida
[6] = test system: Staphylococcus epidermidis
Escherichia coli = test system: Escherichia coli
Leuconostoc lactis = test system: Leuconostoc lactis
Staphylococcus aureus = test system: Staphylococcus aureus
Bacillus cereus = test system: Bacillus cereus
Listeria innocua = test system: Listeria innocua
Enterococcus faecalis = test system: Enterococcus faecalis
Micrococcus luteus = test system: Micrococcus luteus
Streptococcus uberis = test system: Streptococcus uberis
[7] = test system: Candida parapsilosis ATCC 22019
[8] = test system: Escherichia coli ATCC 25922
[9] = test system: Staphylococcus epidermidis ATCC 12228
Klebsiella pneumoniae = test system: Klebsiella pneumoniae
Pseudomonas aeruginosa = test system: Pseudomonas aeruginosa
Bacillus subtilis = test system: Bacillus subtilis
Proteus mirabilis = test system: Proteus mirabilis
Salmonella typhimurium = test system: Salmonella typhimurium
[10] = test system: Bacillus subtilis ATCC 6633
Escherichia coli MG1655 = test system: Escherichia coli MG1655
[11] = test system: Staphylococcus aureus ATCC 25923
Candida albicans = test system: Candida albicans
[12] = test system: Pseudomonas aeruginosa PAO1
Streptococcus mutans = test system: Streptococcus mutans

MIC [1]: ≥ 100 µM
Compound: CC[C@H](C)[C@H](N)C(=O)N[C@@H](CC(C)C)C(=O)N1CCC[C@H]1C(=O)N[C@@H](CCC(=O)O)C(=O)N[C@@H](CCCCN)C(=O)N[C@@H](CCC(=O)O)C(=O)N1CCC[C@H]1C(=O)N[C@@H](CCC(=O)O)C(=O)N[C@@H](CCC(=O)O)C(=O)N1CCC[C@H]1C(=O)N[C@@H](CCC(=O)O)C(=O)N[C@@H](CCCN=C(N)N)C(=O)N[C@@H](CCCN=C(N)N)C(N)=O [ILPEKEPEEPERR]

MIC (Shigella dysenteriae): 0.643 µM (≈ 1.25 µg/mL)
MIC [2]: 3.86 µM (≈ 7.49 µg/mL)
MIC [3]: 1.29 µM (≈ 2.5 µg/mL)
MIC [4]: ≥ 100 µM
MIC [5]: ≥ 100 µM
Compound: CC[C@H](C)[C@H](NC(=O)CNC(=O)[C@H](CO)NC(=O)[C@H](CC(C)C)NC(=O)[C@H](CC(C)C)NC(=O)CN)C(=O)N[C@@H](CC(C)C)C(=O)NCC(=O)N[C@@H](C)C(=O)NCC(=O)N[C@@H](CCCCN)C(=O)N[C@@H](CC(N)=O)C(=O)N[C@H](C(=O)N[C@H](C(=O)N[C@H]1CSSC[C@@H](C(=O)O)NC(=O)[C@H](CC(C)C)NC(=O)CNC(=O)[C@H](CO)NC(=O)[C@H](CC(C)C)NC(=O)CNC1=O)C(C)C)[C@@H](C)CC [GLLSGILGAGKNIVCGLSGLC]

MIC (Pasteurella multocida): ≥ 36.7 µM
MIC [6]: ≥ 36.7 µM
MIC (Escherichia coli): > 36.7 µM
MIC (Leuconostoc lactis): ≥ 36.7 µM
MIC (Staphylococcus aureus): > 36.7 µM
MIC (Bacillus cereus): ≥ 36.7 µM
MIC (Listeria innocua): ≥ 36.7 µM
MIC (Enterococcus faecalis): ≥ 36.7 µM
MIC (Micrococcus luteus): ≥ 36.7 µM
MIC (Streptococcus uberis): 9.17 µM (≈ 25 µg/mL)
Compound: CC[C@H](C)[C@H](NC(=O)CNC(=O)[C@H](CO)NC(=O)[C@@H](NC(=O)[C@@H](NC(=O)CNC(=O)[C@H](CCCCN)NC(=O)[C@H](C)NC(=O)[C@H](CC(C)C)NC(=O)[C@H](CO)NC(=O)[C@H](CCC(=O)O)NC(=O)[C@H](CC(C)C)NC(=O)[C@H](CO)NC(=O)[C@H](CCC(=O)O)NC(=O)[C@H](CC(C)C)NC(=O)[C@H](CCCCN)NC(=O)[C@H](CCC(=O)O)NC(=O)[C@H](CCCCN)NC(=O)[C@@H](NC(=O)[C@@H](NC(=O)[C@H](CCC(N)=O)NC(=O)[C@H](CC(C)C)NC(=O)[C@H](CC(C)C)NC(=O)CN)[C@@H](C)O)[C@@H](C)CC)[C@@H](C)CC)C(C)C)C(=O)N[C@@H](CCC(N)=O)C(=O)N[C@@H](C)C(N)=O [GLLQTIKEKLESLESLAKGIVSGIQA]

MIC [7]: 16 µM (≈ 35.4 µg/mL)
MIC [8]: 64 µM (≈ 142 µg/mL)
MIC [9]: 4 µM (≈ 8.86 µg/mL)
Compound: CC[C@H](C)[C@H](N)C(=O)N[C@H](C(=O)N1CCC[C@H]1C(=O)N[C@@H](Cc1ccccc1)C(=O)N[C@@H](CC(C)C)C(=O)N[C@@H](CC(C)C)C(=O)NCC(=O)N[C@@H](CCSC)C(=O)N[C@H](C(=O)N1CCC[C@H]1C(=O)N[C@@H](CCCCN)C(=O)N[C@@H](CC(C)C)C(=O)N[C@H](C(=O)N[C@H]1CSSC[C@@H](C(=O)O)NC(=O)[C@H](CCCCN)NC(=O)[C@H](CCCCN)NC(=O)[C@H]([C@@H](C)O)NC(=O)[C@H]([C@@H](C)CC)NC(=O)[C@H](CC(C)C)NC1=O)C(C)C)C(C)C)C(C)C [IVPFLLGMVPKLVCLITKKC]

MIC (Klebsiella pneumoniae): 9.8 µM (≈ 25 µg/mL)
MIC (Shigella dysenteriae): 19.6 µM (≈ 50 µg/mL)
MIC (Pseudomonas aeruginosa): 78.4 µM (≈ 200 µg/mL)
MIC [6]: 4.9 µM (≈ 12.5 µg/mL)
MIC (Escherichia coli): 4.9 µM (≈ 12.5 µg/mL)
MIC (Staphylococcus aureus): 1.21 µM (≈ 3.1 µg/mL)
MIC (Bacillus subtilis): 2.47 µM (≈ 6.3 µg/mL)
MIC (Proteus mirabilis): ≥ 78.4 µM
MIC (Micrococcus luteus): 2.47 µM (≈ 6.3 µg/mL)
MIC (Salmonella typhimurium): ≥ 39.2 µM
Compound: CC[C@H](C)[C@@H]1NC(=O)[C@H](C)NC(=O)[C@@H](NC(=O)[C@H](CCCCN)NC(=O)[C@@H](NC(=O)[C@H](CO)NC(=O)[C@@H]2CCCN2C(=O)[C@H](CC(C)C)NC(=O)[C@@H](NC(=O)[C@H](CCCCN)NC(=O)[C@H](CO)NC(=O)[C@H](C)NC(=O)[C@@H](NC(=O)[C@H](CCCCN)NC(=O)[C@H](Cc2ccccc2)NC(=O)[C@H](CC(C)C)NC(=O)[C@H](C)NC(=O)CNC(=O)[C@H](CC(C)C)NC(=O)[C@@H](N)Cc2ccccc2)C(C)C)C(C)C)C(C)C)CSSC[C@@H](C(=O)O)NC(=O)[C@H](CCCCN)NC(=O)[C@H](CCCCN)NC(=O)[C@H]([C@@H](C)O)NC1=O [FLGALFKVASKVLPSVKCAITKKC]

MIC (Klebsiella pneumoniae): > 177 µM
MIC (Shigella dysenteriae): ≥ 177 µM
MIC (Pseudomonas aeruginosa): > 177 µM
MIC [6]: ≥ 177 µM
MIC (Escherichia coli): 177 µM (≈ 200 µg/mL)
MIC (Staphylococcus aureus): 177 µM (≈ 200 µg/mL)
MIC (Bacillus subtilis): ≥ 177 µM
MIC (Proteus mirabilis): ≥ 177 µM
MIC (Micrococcus luteus): ≥ 177 µM
MIC (Salmonella typhimurium): ≥ 177 µM
Compound: CC(C)C[C@H](NC(=O)[C@@H](NC(=O)[C@H](CCCCN)NC(=O)[C@H](CO)NC(=O)[C@H](C)NC(=O)[C@@H](NC(=O)[C@H](CCCCN)NC(=O)[C@H](Cc1ccccc1)NC(=O)[C@H](CC(C)C)NC(=O)[C@H](C)NC(=O)CN)C(C)C)C(C)C)C(=O)O [GALFKVASKVL]

MIC (Shigella dysenteriae): 17.7 µM (≈ 35 µg/mL)
MIC [10]: 4.75 µM (≈ 9.37 µg/mL)
MIC [2]: 9.49 µM (≈ 18.7 µg/mL)
MIC [3]: 2.38 µM (≈ 4.7 µg/mL)
Compound: CC[C@H](C)[C@H](NC(=O)[C@H](CCCCN)NC(=O)[C@@H]1CCCN1C(=O)[C@H](CC(C)C)NC(=O)[C@H](Cc1ccccc1)NC(=O)[C@H](CC(C)C)NC(=O)[C@@H]1CCCN1C(=O)[C@H](CC(C)C)NC(=O)[C@@H](N)Cc1ccccc1)C(=O)N[C@H](C(=O)N[C@H]1CSSC[C@@H](C(=O)O)NC(=O)[C@H](CCCCN)NC(=O)[C@H](CCCCN)NC(=O)[C@H]([C@@H](C)O)NC(=O)[C@H]([C@@H](C)CC)NC(=O)[C@H](C(C)C)NC1=O)[C@@H](C)CC [FLPLFLPKIICVITKKC]

MIC (Escherichia coli MG1655): 2 µM (≈ 3.73 µg/mL)
MIC [11]: 128 µM (≈ 239 µg/mL)
MIC (Candida albicans): 32 µM (≈ 59.7 µg/mL)
MIC [12]: 32 µM (≈ 59.7 µg/mL)
Compound: CSCC[C@H](NC(=O)[C@@H](NC(=O)[C@@H](N)CCCCN)C(C)C)C(=O)N[C@@H](CCCN=C(N)N)C(=O)N[C@@H](CCCCN)C(=O)N[C@H](C(=O)N[C@@H](CC(C)C)C(=O)NCC(=O)N[C@@H](Cc1ccc(O)cc1)C(=O)N[C@@H](CC(C)C)C(=O)N[C@@H](CCCN=C(N)N)C(=O)N[C@@H](CC(N)=O)C(=O)N[C@H](C(=O)N[C@@H](Cc1ccc(O)cc1)C(=O)N[C@@H](CCCCN)C(N)=O)C(C)C)C(C)C [KVMRKVLGYLRNVYK]

MIC (Streptococcus mutans): 26.6 µM (≈ 32 µg/mL)
Compound: NC(N)=NCCC[C@H](NC(=O)[C@H](Cc1c[nH]c2ccccc12)NC(=O)[C@H](Cc1c[nH]c2ccccc12)NC(=O)[C@H](Cc1c[nH]c2ccccc12)NC(=O)[C@H](CCCN=C(N)N)NC(=O)[C@H](CCCN=C(N)N)NC(=O)[C@@H](N)CCCN=C(N)N)C(=O)O [RRRWWWR]

MIC (Streptococcus mutans): ≥ 461 µM
Compound: NCCCC[C@H](NC(=O)[C@H](CCCN=C(N)N)NC(=O)[C@H](CCCN=C(N)N)NC(=O)[C@H](CCCCN)NC(=O)[C@H](Cc1c[nH]c2ccccc12)NC(=O)[C@H](CCCN=C(N)N)NC(=O)[C@@H](N)CCCN=C(N)N)C(=O)O [RRWKRRK]

MIC (Streptococcus mutans): ≥ 178 µM
Compound: CC[C@H](C)[C@H](NC(=O)[C@H](CCC(=O)O)NC(=O)[C@H](CCCCN)NC(=O)[C@H](CC(C)C)NC(=O)[C@H](CCC(N)=O)NC(=O)[C@H](CCC(=O)O)NC(=O)[C@@H](NC(=O)[C@H](CC(C)C)NC(=O)[C@@H](N)CCCCN)C(C)C)C(=O)N[C@@H](Cc1ccccc1)C(=O)N[C@@H](CCCN=C(N)N)C(=O)O [KLVEQLKEIFR]

MIC (Streptococcus mutans): 3.65 µM (≈ 8 µg/mL)
Compound: NC(=O)[C@H](Cc1cnc[nH]1)NC(=O)[C@H](Cc1ccccc1)NC(=O)[C@H](Cc1ccccc1)NC(=O)[C@H](Cc1cnc[nH]1)NC(=O)[C@H](Cc1cnc[nH]1)NC(=O)[C@H](Cc1ccccc1)NC(=O)[C@H](Cc1cnc[nH]1)NC(=O)[C@H](CCCN=C(N)N)NC(=O)[C@H](Cc1c[nH]c2ccccc12)NC(=O)[C@H](Cc1c[nH]c2ccccc12)NC(=O)[C@H](CCCN=C(N)N)NC(=O)[C@H](CCCN=C(N)N)NC(=O)[C@H](Cc1c[nH]c2ccccc12)NC(=O)[C@@H](N)CCCN=C(N)N [RWRRWWRHFHHFFH]
